The values below come from ChEMBL document CHEMBL2074487, “Effects of 12 Ca2+ antagonists on multidrug resistance, MDR1-mediated transport and MDR1 mRNA expression” (Eur J Pharm Sci, 2002).

For orientation: IC50 means the concentration that inhibits the measured activity by half.

For the assay, the target named is ATP-dependent translocase ABCB1 (Homo sapiens, UniProt P08183). Briefly: TP_TRANSPORTER: inhibition of Digoxin transepithelial transport (basal to apical) (Digoxin: 0.1 uM) in MDR1-expressing LLC-PK1 cells. It is filed as functional, cell-based.
Chain of ATP-dependent translocase ABCB1 (P08183 whole entry): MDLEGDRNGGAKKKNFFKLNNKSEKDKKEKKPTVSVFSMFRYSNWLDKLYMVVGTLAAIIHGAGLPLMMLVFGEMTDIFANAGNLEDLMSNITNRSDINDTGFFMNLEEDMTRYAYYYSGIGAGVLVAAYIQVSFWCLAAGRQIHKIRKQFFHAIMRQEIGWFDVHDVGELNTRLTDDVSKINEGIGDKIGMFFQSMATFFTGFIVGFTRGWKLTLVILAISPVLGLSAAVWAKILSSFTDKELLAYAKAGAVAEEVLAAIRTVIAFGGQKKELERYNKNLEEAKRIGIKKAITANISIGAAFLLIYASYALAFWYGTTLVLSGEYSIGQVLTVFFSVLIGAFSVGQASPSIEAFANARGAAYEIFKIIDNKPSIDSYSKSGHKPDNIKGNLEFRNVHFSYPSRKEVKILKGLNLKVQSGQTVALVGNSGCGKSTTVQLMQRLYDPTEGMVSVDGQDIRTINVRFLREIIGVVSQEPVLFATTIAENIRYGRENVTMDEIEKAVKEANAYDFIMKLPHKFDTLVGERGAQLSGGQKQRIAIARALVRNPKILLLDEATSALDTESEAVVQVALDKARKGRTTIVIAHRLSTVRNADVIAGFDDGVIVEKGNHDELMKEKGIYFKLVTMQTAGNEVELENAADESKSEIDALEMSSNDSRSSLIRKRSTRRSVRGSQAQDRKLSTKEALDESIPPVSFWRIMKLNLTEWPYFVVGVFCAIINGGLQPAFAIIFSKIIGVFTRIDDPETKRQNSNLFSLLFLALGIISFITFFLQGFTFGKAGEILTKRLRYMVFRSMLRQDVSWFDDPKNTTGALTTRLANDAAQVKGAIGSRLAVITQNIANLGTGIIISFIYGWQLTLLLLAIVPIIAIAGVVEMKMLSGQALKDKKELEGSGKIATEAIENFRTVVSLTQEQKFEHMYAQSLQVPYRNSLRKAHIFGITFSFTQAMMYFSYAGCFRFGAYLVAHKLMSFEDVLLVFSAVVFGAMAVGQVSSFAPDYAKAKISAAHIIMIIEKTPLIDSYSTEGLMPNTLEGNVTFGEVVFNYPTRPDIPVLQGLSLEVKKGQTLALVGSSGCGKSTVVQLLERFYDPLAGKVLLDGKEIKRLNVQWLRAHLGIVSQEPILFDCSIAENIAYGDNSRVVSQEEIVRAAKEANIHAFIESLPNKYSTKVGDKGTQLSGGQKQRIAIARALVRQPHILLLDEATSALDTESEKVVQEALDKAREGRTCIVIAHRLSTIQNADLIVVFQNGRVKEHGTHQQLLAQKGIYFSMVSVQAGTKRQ
In turn, `CC1=C(C(=O)OCCN(Cc2ccccc2)c2ccccc2)C(c2cccc([N+](=O)[O-])c2)C(P2(=O)OCC(C)(C)CO2)=C(C)N1` (configuration not stated) [EFONIDIPINE] showed an IC50 of 13 µM.
Turning to `COC(=O)C1=C(C)NC(C)=C(C(=O)O[C@H]2CCN(Cc3ccccc3)C2)[C@H]1c1cccc([N+](=O)[O-])c1` [BARNIDIPINE], the midpoint of inhibition, the IC50, lay at 12.6 µM.
Then `CCOC(=O)C1=C(C)NC(C)=C(C(=O)OC)C1c1cccc([N+](=O)[O-])c1` (configuration not stated) [NITRENDIPINE], with 68.2 µM; and `COC(=O)C1=C(C)NC(C)=C(C(=O)O[C@@H]2CCCN(Cc3ccccc3)C2)C1c1cccc([N+](=O)[O-])c1` (some centres not stated), with 4.96 µM; and `COC(=O)C1=C(C#N)NC(C)=C(C(=O)OC(C)C)C1c1cccc([N+](=O)[O-])c1` (configuration not stated) [NILVADIPINE], with 18 µM.
Then `COC(=O)C1=C(C)NC(C)=C(C(=O)OCC(C)C)C1c1ccccc1[N+](=O)[O-]` (configuration not stated) [NISOLDIPINE], with 44.1 µM; and `COC(=O)C1=C(C)NC(C)=C(C(=O)OC)C1c1ccccc1[N+](=O)[O-]` [NIFEDIPINE], with 472 µM.
